Molecules are shown by their SMILES.

This assay in a line: Inhibition of human alphaVbeta3 receptor expressed in african green monkey Vero E6 cells assessed as inhibition of SNV infection in cells by immunofluorescent assay.
A word on the EC50: it is the midpoint of the concentration-response curve. Turning to `O=C(NCc1cccs1)C(Cc1ccccc1)NS(=O)(=O)c1ccc2nsnc2c1` (racemic) [rac-2-(benzo[c][1,2,5]thiadiazole-5-sulfonamido)-3-phenyl-N-(thiophen-2-ylmethyl)propanamide], the EC50 was found to be 2.5 nM.
Turning to `O=C(NCc1ccc2c(c1)OCO2)C(Cc1ccccc1)NS(=O)(=O)c1cccc2cccnc12` (racemic) [rac-N-(benzo[d][1,3]dioxol-5-ylmethyl)-3-phenyl-2-(quinoline-8-sulfonamido)propanamide], the EC50 is 1.6 nM.
Turning to `O=c1c(C=NCc2ccco2)c(CSc2ccc(Cl)cc2)[nH]n1-c1nc2ccccc2s1` [2-(benzo[d]thiazol-2-yl)-5-((4-chlorophenylthio)methyl)-4-((furan-2-ylmethylimino)methyl)-1H-pyrazol-3(2H)-one], the EC50 turned out to be 1.3 nM.
